Measurements from patent publication US20260250318A1, “COMPOSITIONS AND METHODS FOR CROSSING THE BLOOD BRAIN BARRIER” (VOYAGER THERAPEUTICS, INC., priority 2022, published 2026).

Experiments:
brain = assay: Matured TTM-001 and TTM-002 variants, NGS enrichment in mouse brain; assay type: in vivo, mice; settings: relative to AAV9 control
[1] = system: brains, heart, liver, muscle, and DRG of the NHPs; assay: Maturation of TTM-001 and TTM-002 capsids, NGS enrichment in NHP tissues; assay type: in vivo; settings: relative to AAV9 control
How it was run: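 Variants carry mutations within and flanking the loop IV peptide insert: positions 450–466 were triplet-randomized, while positions 449–466 received low-frequency point mutations. The combined pool went into two NHPs, and each peptide was scored by NGS enrichment ratio against AAV9.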

[2] = NGS fold-enrichment of matured AAV capsid variants, NHP brain, RNA
[3] = NGS fold-enrichment, brain of mice
[4] = NGS fold-enrichment, DRG of NHPs
[5] = NGS fold-enrichment, RNA, brain of NHPs
[6] = NGS fold-enrichment, heart of NHPs
[7] = NGS fold-enrichment, liver DNA of NHPs
[8] = NGS fold-enrichment, liver RNA of NHPs
[9] = NGS fold-enrichment, muscle of NHPs
[10] = NGS fold-enrichment, mouse brain
[11] = NGS fold-enrichment of RNA, NHP brain
[12] = NGS fold-enrichment, NHP liver DNA
[13] = NGS fold-enrichment, NHP liver RNA
[14] = NGS fold-enrichment, NHP muscle

Sequence | Fold Enrichment relative to AAV9, Brain (Mouse) (brain; mouse brain) [fold] | Fold Enrichment relative to AAV9, Brain (NHP) [1, 2] [fold] | Fold Enrichment relative to AAV9, DRG (NHP) ([1]; NHP DRG) [fold] | Fold Enrichment relative to AAV9, Heart (NHP) ([1]; NHP heart) [fold] | Fold Enrichment relative to AAV9, Liver DNA (NHP) ([1]; NHP liver, DNA) [fold] | Fold Enrichment relative to AAV9, Liver RNA (NHP) ([1]; NHP liver, RNA) [fold] | Fold Enrichment relative to AAV9, Muscle (NHP) ([1]; NHP muscle) [fold] | also measured
KTIPMEGSPHSKAQNQQT | 89.951 | 56.560 | 0.000 | 0.000 | 0.371 | 1.824 | 0.000 | –
KTENTSGSPHSKAQNQQT | – | – | – | – | – | – | – | Fold Enrichment relative to AAV9, Brain (Mouse) (brain; [3]): 96.249 fold; Fold Enrichment relative to AAV9, DRG (NHP) [1, 4]: 0.000 fold; Fold Enrichment relative to AAV9, Brain (NHP) [1, 5]: 74.061 fold; Fold Enrichment relative to AAV9, Heart (NHP) [1, 6]: 0.000 fold; Fold Enrichment relative to AAV9, Liver DNA (NHP) [1, 7]: 0.730 fold; Fold Enrichment relative to AAV9, Liver RNA (NHP) [1, 8]: 0.233 fold; Fold Enrichment relative to AAV9, Muscle (NHP) [1, 9]: 0.218 fold
KTENKSGSPHSKAQNQQT | – | – | – | – | – | – | – | Fold Enrichment relative to AAV9, Brain (Mouse) (brain; [10]): 31.182 fold; Fold Enrichment relative to AAV9, Brain (NHP) [1, 11]: 103.854 fold; Fold Enrichment relative to AAV9, DRG (NHP) ([1]; NGS fold-enrichment, NHP DRG): 0.000 fold; Fold Enrichment relative to AAV9, Heart (NHP) ([1]; NGS fold-enrichment, NHP heart): 0.037 fold; Fold Enrichment relative to AAV9, Liver DNA (NHP) [1, 12]: 0.119 fold; Fold Enrichment relative to AAV9, Liver RNA (NHP) [1, 13]: 0.000 fold; Fold Enrichment relative to AAV9, Muscle (NHP) [1, 14]: 0.000 fold
KTINGSGSPHSKAQKFET | – | – | – | – | – | – | – | Fold Enrichment relative to AAV9, Brain (Mouse) (brain; [3]): 65.588 fold; Fold Enrichment relative to AAV9, Brain (Mouse) (brain; [10]): 65.588 fold; Fold Enrichment relative to AAV9, Brain (NHP) [1, 11]: 75.788 fold; Fold Enrichment relative to AAV9, DRG (NHP) [1, 4]: 0.000 fold; Fold Enrichment relative to AAV9, DRG (NHP) ([1]; NGS fold-enrichment, NHP DRG): 0.000 fold; Fold Enrichment relative to AAV9, Heart (NHP) ([1]; NGS fold-enrichment, NHP heart): 0.000 fold; Fold Enrichment relative to AAV9, Liver DNA (NHP) [1, 12]: 0.093 fold; Fold Enrichment relative to AAV9, Liver RNA (NHP) [1, 13]: 0.108 fold; Fold Enrichment relative to AAV9, Muscle (NHP) [1, 14]: 0.028 fold; Fold Enrichment relative to AAV9, Brain (NHP) [1, 5]: 75.788 fold; Fold Enrichment relative to AAV9, Heart (NHP) [1, 6]: 0.000 fold; Fold Enrichment relative to AAV9, Liver DNA (NHP) [1, 7]: 0.093 fold; Fold Enrichment relative to AAV9, Liver RNA (NHP) [1, 8]: 0.108 fold; Fold Enrichment relative to AAV9, Muscle (NHP) [1, 9]: 0.028 fold
KNSIGSGSPHSKAQNQQT | 97.381 | 57.101 | 0.000 | 0.052 | 0.074 | 0.083 | 0.000 | –
KTINGSGSPHSKAQVQQI | 61.957 | 57.308 | 0.000 | 1.113 | 0.113 | 0.000 | 0.000 | –
KAINGHDSPHKSAQNQET | – | – | – | – | – | – | – | Fold Enrichment relative to AAV9, Brain (Mouse) (brain; [10]): 10.674 fold; Fold Enrichment relative to AAV9, Brain (NHP) [1, 11]: 90.402 fold; Fold Enrichment relative to AAV9, DRG (NHP) ([1]; NGS fold-enrichment, NHP DRG): 0.000 fold; Fold Enrichment relative to AAV9, Heart (NHP) ([1]; NGS fold-enrichment, NHP heart): 0.073 fold; Fold Enrichment relative to AAV9, Liver DNA (NHP) [1, 12]: 0.000 fold; Fold Enrichment relative to AAV9, Liver RNA (NHP) [1, 13]: 0.746 fold; Fold Enrichment relative to AAV9, Muscle (NHP) [1, 14]: 0.000 fold
KTERTSGSPHSKAQNQQT | – | – | – | – | – | – | – | Fold Enrichment relative to AAV9, Brain (Mouse) (brain; [3]): 117.374 fold; Fold Enrichment relative to AAV9, Brain (Mouse) (brain; [10]): 117.374 fold; Fold Enrichment relative to AAV9, Brain (NHP) [1, 11]: 112.957 fold; Fold Enrichment relative to AAV9, DRG (NHP) [1, 4]: 0.000 fold; Fold Enrichment relative to AAV9, DRG (NHP) ([1]; NGS fold-enrichment, NHP DRG): 0.000 fold; Fold Enrichment relative to AAV9, Heart (NHP) ([1]; NGS fold-enrichment, NHP heart): 0.009 fold; Fold Enrichment relative to AAV9, Liver DNA (NHP) [1, 12]: 0.207 fold; Fold Enrichment relative to AAV9, Liver RNA (NHP) [1, 13]: 1.128 fold; Fold Enrichment relative to AAV9, Muscle (NHP) [1, 14]: 0.000 fold; Fold Enrichment relative to AAV9, Brain (NHP) [1, 5]: 112.957 fold; Fold Enrichment relative to AAV9, Heart (NHP) [1, 6]: 0.009 fold; Fold Enrichment relative to AAV9, Liver DNA (NHP) [1, 7]: 0.207 fold; Fold Enrichment relative to AAV9, Liver RNA (NHP) [1, 8]: 1.128 fold; Fold Enrichment relative to AAV9, Muscle (NHP) [1, 9]: 0.000 fold
KTDVGSGSPHSKAQNQQT | 115.774 | 51.849 | 0.000 | 0.007 | 0.560 | 0.385 | 0.000 | –
KTIRENGSPHSKAQNQQT | 95.931 | 55.605 | 0.000 | 0.000 | 0.257 | 0.131 | 0.016 | –
KTINGSGSPHSKARGEQT | 128.098 | 54.207 | 0.025 | 0.006 | 0.327 | 0.309 | 0.005 | –
KTINGSGSPHSKAQREMT | 70.961 | 51.076 | 0.000 | 24.900 | 0.476 | 1.564 | 143.49 | –
KTINGSGSPHSKAQERST | 87.656 | 58.021 | 0.000 | 0.011 | 0.409 | 0.829 | 0.005 | –
KTINGGGSPHSKAQYQHT | 82.256 | 54.188 | 0.000 | 0.000 | 0.223 | 0.000 | 0.000 | –
KNAIGSGSPHSKAQNQQT | 117.939 | 52.516 | 0.000 | 0.000 | 0.198 | 0.165 | 0.000 | –
KTINGSGSPHSKAQIPPT | – | – | – | – | – | – | – | Fold Enrichment relative to AAV9, Brain (Mouse) (brain; [3]): 87.661 fold; Fold Enrichment relative to AAV9, DRG (NHP) [1, 4]: 0.000 fold; Fold Enrichment relative to AAV9, Brain (NHP) [1, 5]: 61.258 fold; Fold Enrichment relative to AAV9, Heart (NHP) [1, 6]: 0.000 fold; Fold Enrichment relative to AAV9, Liver DNA (NHP) [1, 7]: 0.115 fold; Fold Enrichment relative to AAV9, Liver RNA (NHP) [1, 8]: 0.758 fold; Fold Enrichment relative to AAV9, Muscle (NHP) [1, 9]: 0.000 fold
